Experimental findings from ChEMBL document CHEMBL1208688, “Synthesis and biological evaluation of novel benzodioxinocarbazoles (BDCZs) as potential anticancer agents” (Bioorg Med Chem Lett, 2010) are described below.

The source made the active and inactive calls. The calls are words filed in the database; no cut-off is given here.

Assay [1] concerns the target DNA topoisomerase 2-alpha (Homo sapiens) (UniProt P11388). The experiment in a line: Inhibition of topoisomerase 2.
The target in assay [2] is T1, DNA topoisomerase 1 (Homo sapiens) (UniProt P11387).
T1 sequence (whole entry): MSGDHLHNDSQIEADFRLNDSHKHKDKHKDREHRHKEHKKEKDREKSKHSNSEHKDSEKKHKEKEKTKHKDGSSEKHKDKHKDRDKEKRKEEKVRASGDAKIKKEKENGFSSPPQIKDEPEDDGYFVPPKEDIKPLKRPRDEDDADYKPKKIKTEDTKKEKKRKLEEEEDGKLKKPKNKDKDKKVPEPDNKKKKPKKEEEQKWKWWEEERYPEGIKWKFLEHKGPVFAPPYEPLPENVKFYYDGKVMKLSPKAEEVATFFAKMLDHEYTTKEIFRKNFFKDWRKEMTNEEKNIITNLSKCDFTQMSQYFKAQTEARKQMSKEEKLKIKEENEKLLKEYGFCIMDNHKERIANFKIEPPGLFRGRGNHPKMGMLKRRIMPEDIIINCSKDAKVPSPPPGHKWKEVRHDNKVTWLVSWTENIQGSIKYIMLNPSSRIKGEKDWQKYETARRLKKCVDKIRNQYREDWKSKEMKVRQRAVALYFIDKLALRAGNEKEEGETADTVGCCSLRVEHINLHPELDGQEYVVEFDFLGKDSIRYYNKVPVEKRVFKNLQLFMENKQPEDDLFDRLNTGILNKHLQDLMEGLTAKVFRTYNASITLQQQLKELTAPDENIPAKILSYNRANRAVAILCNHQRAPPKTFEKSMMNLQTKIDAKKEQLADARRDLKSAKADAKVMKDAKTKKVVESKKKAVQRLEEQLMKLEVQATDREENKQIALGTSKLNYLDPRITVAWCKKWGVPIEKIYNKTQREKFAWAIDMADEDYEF
The experiment in a line: Inhibition of topoisomerase 1.

DNA topoisomerase 2-alpha (Homo sapiens), sequence (P11388 whole entry): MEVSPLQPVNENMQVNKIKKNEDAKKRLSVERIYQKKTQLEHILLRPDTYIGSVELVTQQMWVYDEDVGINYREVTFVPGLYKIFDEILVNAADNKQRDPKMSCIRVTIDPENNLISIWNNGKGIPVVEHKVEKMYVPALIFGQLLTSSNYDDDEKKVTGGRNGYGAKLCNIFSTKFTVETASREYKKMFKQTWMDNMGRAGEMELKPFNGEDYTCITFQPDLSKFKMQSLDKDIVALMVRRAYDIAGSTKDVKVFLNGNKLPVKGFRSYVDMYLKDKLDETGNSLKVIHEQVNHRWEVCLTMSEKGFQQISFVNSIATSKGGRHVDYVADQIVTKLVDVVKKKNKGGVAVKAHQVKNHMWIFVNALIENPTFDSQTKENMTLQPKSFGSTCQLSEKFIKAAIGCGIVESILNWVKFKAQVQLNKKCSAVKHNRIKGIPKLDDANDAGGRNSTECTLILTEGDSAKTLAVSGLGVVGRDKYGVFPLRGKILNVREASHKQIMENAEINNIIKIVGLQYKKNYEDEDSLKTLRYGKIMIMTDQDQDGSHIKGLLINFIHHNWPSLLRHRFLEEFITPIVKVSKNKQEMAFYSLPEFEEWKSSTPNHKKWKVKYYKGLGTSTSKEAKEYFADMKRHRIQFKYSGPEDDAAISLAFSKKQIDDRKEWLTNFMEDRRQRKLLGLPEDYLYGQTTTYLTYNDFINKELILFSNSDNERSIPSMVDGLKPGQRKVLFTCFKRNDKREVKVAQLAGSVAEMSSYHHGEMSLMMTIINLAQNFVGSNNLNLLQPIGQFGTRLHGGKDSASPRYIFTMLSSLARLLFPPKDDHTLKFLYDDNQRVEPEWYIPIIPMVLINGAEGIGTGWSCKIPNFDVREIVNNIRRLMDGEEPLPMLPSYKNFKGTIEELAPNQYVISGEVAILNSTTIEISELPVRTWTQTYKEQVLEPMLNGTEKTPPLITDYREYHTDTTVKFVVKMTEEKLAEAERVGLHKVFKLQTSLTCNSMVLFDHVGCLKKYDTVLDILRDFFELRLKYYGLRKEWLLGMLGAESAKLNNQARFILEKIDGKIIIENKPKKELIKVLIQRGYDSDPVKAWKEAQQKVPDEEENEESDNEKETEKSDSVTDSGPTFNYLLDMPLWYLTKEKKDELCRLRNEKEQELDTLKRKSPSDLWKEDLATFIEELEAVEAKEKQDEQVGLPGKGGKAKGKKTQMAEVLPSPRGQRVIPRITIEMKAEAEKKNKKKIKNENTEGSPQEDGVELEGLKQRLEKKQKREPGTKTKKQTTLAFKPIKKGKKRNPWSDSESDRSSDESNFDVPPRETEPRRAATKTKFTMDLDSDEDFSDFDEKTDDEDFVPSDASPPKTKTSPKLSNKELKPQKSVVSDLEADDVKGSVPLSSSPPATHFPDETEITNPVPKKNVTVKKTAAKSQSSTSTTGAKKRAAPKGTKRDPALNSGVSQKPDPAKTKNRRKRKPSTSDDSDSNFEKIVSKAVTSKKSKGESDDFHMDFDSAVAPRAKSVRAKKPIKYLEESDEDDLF

`CN(C)CCn1c(=O)c2c3oc4ccccc4oc3c3[nH]c4ccc(O)cc4c3c2c1=O`: the inhibition entry in assay [1] and in assay [2] was “inactive” in each case.
